Where two headings read alike, the source gives them in different places.
Test system: 3T3/IGF-1R cells
Assay: IGF-1 Receptor Growth Assay (3T3/IGF-1R cells, SRB)
Assay type: cell-based
Protocol: Sulforhodamine B (SRB) Assay for Adherent Cells
Sulforhodamine B assays for measuring effects of TBST compounds on cell growth were based on procedures described by Skehan et al. J. Natl. Cancer Inst. 82:1107, 1990 incorporated herein by reference in its entirety, including any drawings. Unless otherwise stated the assays were carried out aseptically as follows:
IGF-1 Receptor Growth Assay
Cell lines: 3T3/IGF-1 R (10% FBS/2 mM glutamine/DMEM) NIH 3T3 c7 (10% calf serum/2 mM glutamine/DMEM) NOTE: NIH 3T3 cells (and cells derived from them) should never be allowed to become confluent because this increases the chance of spontaneous transformation. If they show signs of being transformed (morphological changes, piling up, moving into clumps), throw them away and thaw a fresh batch.
Materials: 10% FBS/2 mM glutamine/DMEM 0.5% FBS/2 mM glutamine/DMEM 10% calf serum/2 mM glutamine/DMEM IGF-1, 5 μM in sterile PBS (Promega/Fisher cat. #G5111) DMSO, tissue culture grade (Sigma cat. #D 2650) Hits from screen 11, 100 mM in DMSO 96-well plates, flat and round bottom 8 channel pipettor and sterile tips sterile reagent reservoirs sterile tubes (1.5 or 15 ml)
Methods (carry all steps out under asceptic conditions until fixing the cells for the SRB assay):
Day 0: Cell Plating--Trypsinize and count 3T3/IGF-1R and NIH 3T3 c7 cells. Dilute in growth media to 2000 cells/200 μl and seed flat bottom 96-well plates with 200 μl/well, one plate for two compounds for each cell line.
Day 1: Compound preparation--Add DMSO to each compound to make 100 mM stock solutions.
Aliquot each compound to 3-4 sterile screw cap tubes and store at -20° C. After thawing, make sure the compound has gone completely back into solution. Throw away after 3 freeze/thaws.
3T3/IGF-1R cells--For each 96-well plate, make 15 ml of 10 nM IGF-1/0.5% FBS/2 mM glutamine/DMEM (30 μl of 5 μM IGF-1/15 ml).
Aliquot 1.5 ml 10 nM IGF-1/0.5% FBS to a sterile tube for each compound to be tested (the first time a compound is tested, use a 15 ml tube in case it is necessary to add extra medium to get it into solution).
Add 3 μl of 100 mM stock of each compound to a tube so 200 μM final. Shake or vortex until it goes into solution. If it is necessary to add additional medium, note the final concentration.
For the DMSO control, prepare 0.5 ml/plate of 0.2% DMSO/10 nM IGF-1/0.5% FBS (2 μl DMSO/ml).
For every two compounds, aliquot 130 μl 10 nM IGF-1/0.5% FBS to wells in columns 2-11 of a 96-well round bottom plate.
Add 260 μl of each compound to four wells in column 12.
Do 2-fold dilutions (130 μl) from columns 12 to 3 on each plate (column 2 will be for the untreated control), mixing thoroughly.
Remove medium from 3T3/IGF-1 R cells, one plate at a time. […]

[1] = read-out: GROWTH DATA: 3T3/IGF1R-0.5% FBS
[2] = read-out: GROWTH DATA: 3T3/IGF1R-10% FBS

SMILES | IC50 [1] [µM] | IC50 [2] [µM]
CC(C)S(=O)(=O)c1csc(NC(=O)Nc2cc(C(F)(F)F)cc(C(F)(F)F)c2)c1Cl [Example Z2, N-[3-Chloro-4-(isopropylsulfonyl)thien-2-yl]-N'-(3,5-di-trifluoromethylphenyl)urea] | 0.7 | 20
O=C(Nc1ccc(SC(F)(F)F)cc1)Nc1ccc(Oc2ccc(Cl)cc2Cl)nc1 [Example Z3] | 0.6 | 18
